Values joined by “and” are separate entries in the source; they are usually repeats but may differ in a detail not shown here. Equal entries are not always repeated. Where two headings read alike, the source gives them in different places.
Key:
Tobacco Mosaic Virus = experiment: Anti-TMV inactivation activity on tobacco plants; type: in vivo; set-up: concentration or dose not given beside the values; settings: compound mixed with TMV solution 30 minutes, lesions checked three days later
Ostrinia furnacalis = experiment: Insecticidal activity against Ostrinia furnacalis; type: in vivo; settings: for pest or weed control at 100 µg/mL: Ostrinia furnacalis, read-out: insecticidal activity, Ostrinia furnacalis
[1] = test system: Phytophthora infestans (Mont.) de Bary; experiment: microbe, parasite or virus in culture; type: cell-based; settings: for inhibition at 50 µg/mL: Phytophthora infestans, read-out: fungicidal activity (growth inhibition rate), PI, 50 μg/mL
Rhizoctonia cerealis = experiment: Fungicidal activity, fungicide growth rate method, RC; type: cell-based; settings: 50 μg/mL; for inhibition at 50 µg/mL: Ceratobasidium cereale, read-out: fungicidal activity (growth inhibition rate), RC
Botrytis cinerea = experiment: Fungicidal activity, fungicide growth rate method, BC; type: cell-based; settings: 50 μg/mL; for inhibition at 50 µg/mL: Botrytis cinerea, read-out: fungicidal activity (growth inhibition rate), BC
wheat Gibberella zeae = experiment: microbe, parasite or virus in culture; type: cell-based; settings: for inhibition at 50 µg/mL: Fusarium graminearum, read-out: fungicidal activity (growth inhibition rate), GZ, 50 μg/mL
Caenorhabditis elegans = experiment: Insecticidal activity against Caenorhabditis elegans; type: in vivo; settings: Caenorhabditis elegans, read-out: insecticidal activity, Caenorhabditis elegans
Alternaria solani = experiment: Fungicidal activity, fungicide growth rate method, AS; type: cell-based; settings: 50 μg/mL; for inhibition at 50 µg/mL: Alternaria solani, read-out: fungicidal activity (growth inhibition rate), AS
Cercospora arachidicola = experiment: Fungicidal activity, fungicide growth rate method, CA; type: cell-based; settings: 50 μg/mL; for inhibition at 50 µg/mL: Mycosphaerella arachidis, read-out: fungicidal activity (growth inhibition rate), CA
[2] = test system: Helicoverpa armigera (Hübner); experiment: Insecticidal activity against Helicoverpa armigera (Hübner); type: in vivo; settings: for pest or weed control at 100 µg/mL: Helicoverpa armigera, read-out: insecticidal activity, Helicoverpa armigera (Hübner)
Pellicularia sasakii = experiment: Fungicidal activity, fungicide growth rate method, PS; type: cell-based; settings: 50 μg/mL; for inhibition at 50 µg/mL: read-out: fungicidal activity (growth inhibition rate), PS
Sclerotinia sclerotiorum = experiment: Fungicidal activity, fungicide growth rate method, SS; type: cell-based; settings: 50 μg/mL; for inhibition at 50 µg/mL: Sclerotinia sclerotiorum
Physalospora piricola = experiment: Fungicidal activity, fungicide growth rate method, PP; type: cell-based; settings: 50 μg/mL; for inhibition at 50 µg/mL: read-out: fungicidal activity (growth inhibition rate), PP
[3] = test system: Mythimna separate (Walker); experiment: Insecticidal activity against Mythimna separate (Walker); type: in vivo; settings: for pest or weed control at 100 µg/mL: Mythimna, read-out: insecticidal activity, Mythimna separate (Walker)
[4] = test system: Apis mellifera ligustica Spin; settings: for Death number after 24 h / Death number after 48 h: per replicate of 10 bees

SMILES | TMV inactivation (anti-TMV activity) (Tobacco Mosaic Virus) [%] | pest or weed control at 100 µg/mL (Ostrinia furnacalis; 100 μg/mL) [%] | inhibition at 50 µg/mL [1] [%] | inhibition at 50 µg/mL (Rhizoctonia cerealis) [%] | inhibition at 50 µg/mL (Botrytis cinerea) [%] | inhibition at 50 µg/mL (wheat Gibberella zeae) [%] | pest or weed control at 100 µg/mL (Caenorhabditis elegans; 100 μg/mL) [%] | inhibition at 50 µg/mL (Alternaria solani) [%] | inhibition at 50 µg/mL (Cercospora arachidicola) [%] | pest or weed control at 100 µg/mL ([2]; 100 μg/mL) [%] | inhibition at 50 µg/mL (Pellicularia sasakii) [%] | inhibition at 50 µg/mL (Sclerotinia sclerotiorum) [%] | inhibition at 50 µg/mL (Physalospora piricola) [%] | pest or weed control at 100 µg/mL ([3]; 100 μg/mL) [%] | further results
CO[C@@H]1CC(=O)[C@@]2(O)CC=CC[C@H]12 [Zyj06-111-2] | 24 | 40 | 31 | 0 | 39 | 47 | > 30 | 14 | > 50 | 50 | 0 | 10 |  |  | 
C=CC[C@@H]1C[C@]2(O)CC(=O)O[C@@]23C[C@H]2O[C@H]2C[C@H]13 [Zyj07-13] | 11 |  | 0 | 43 | > 50 | 14 | 20 | 10 | 8 |  | 6 |  | 30 |  | 
C=CC[C@@H]1C[C@]2(O)C[C@H](O[C@]34CCO[C@@]35CC=CC[C@H]5[C@H](CC=C)C4)O[C@@]23CC=CC[C@H]13 [Zyj07-30-2] | 16 |  |  |  |  |  |  |  |  |  |  |  |  |  | insecticidal activity, Mythimna separate (Walker) ([3]; 100 μg/mL): 0%; insecticidal activity, Ostrinia furnacalis (Ostrinia furnacalis; 100 μg/mL): 0%; fungicidal activity (growth inhibition rate), PI ([1]; 50 μg/mL): 14%; fungicidal activity (growth inhibition rate), PP (Physalospora piricola): 48%; fungicidal activity (growth inhibition rate), RC (Rhizoctonia cerealis): 0%; fungicidal activity (growth inhibition rate), BC (Botrytis cinerea): 34%; fungicidal activity (growth inhibition rate), GZ (wheat Gibberella zeae; 50 μg/mL): 27%; fungicidal activity (growth inhibition rate), AS (Alternaria solani): 0%; fungicidal activity (growth inhibition rate), CA (Cercospora arachidicola): 73%; insecticidal activity, Helicoverpa armigera (Hübner) ([2]; 100 μg/mL): 0%; fungicidal activity (growth inhibition rate), PS (Pellicularia sasakii): 0%; fungicidal activity (growth inhibition rate), SS (Sclerotinia sclerotiorum): 95%
C=CC[C@@H]1C[C@]2(O)CCO[C@@]23C[C@H](O)CC[C@H]13 [Zyj07-32] | 9 | 0 | > 60 | 39 | 23 | 33 | 20 | > 60 | > 50 | 0 | 16 |  |  | 0 | Death rate after 48 h (%) ([4]; dosage 2.73 μg a.i./bee): 10.0%; Death number after 24 h ([4]; dosage 2.73 μg a.i./bee): 0 and 2; Death number after 48 h ([4]; dosage 2.73 μg a.i./bee): 0 and 2; Death rate after 48 h (%) ([4]; dosage 10.0 μg a.i./bee): 5.0%; Death number after 24 h ([4]; dosage 10.0 μg a.i./bee): 0; Death number after 48 h ([4]; dosage 10.0 μg a.i./bee): 1 and 0
C=CC[C@@H]1C[C@]2(OC(C)=O)C[C@@H](OC(C)=O)O[C@@]23CC=CC[C@H]13 [Zyj07-37-1] | 16 | 10 | 15 | 7 |  | 0 | 20 | 14 | 14 | 15 | 0 | > 50 | > 50 | 20 | Death rate after 48 h (%) ([4]; dosage 7.55 μg a.i./bee): 0%; Death number after 24 h ([4]; dosage 7.55 μg a.i./bee): 0; Death number after 48 h ([4]; dosage 7.55 μg a.i./bee): 0; Death rate after 48 h (%) ([4]; dosage 15.3 μg a.i./bee): 0%; Death number after 24 h ([4]; dosage 15.3 μg a.i./bee): 0; Death number after 48 h ([4]; dosage 15.3 μg a.i./bee): 0
CC(=O)O[C@@]12C[C@H]3CC=CC[C@@]1(O3)[C@@H]1CC=CC[C@@H]1C2 [Zyj07-41-2] | 18 | 0 | 25 |  | 34 | 20 | 12 | 14 | > 50 | 15 | 41 |  | > 50 | 10 | Death rate after 48 h (%) ([4]; dosage 8.70 μg a.i./bee): 0%; Death number after 24 h ([4]; dosage 8.70 μg a.i./bee): 0; Death number after 48 h ([4]; dosage 8.70 μg a.i./bee): 0; Death rate after 48 h (%) ([4]; dosage 13.5 μg a.i./bee): 0%; Death number after 24 h ([4]; dosage 13.5 μg a.i./bee): 0; Death number after 48 h ([4]; dosage 13.5 μg a.i./bee): 0
C=CC[C@@H]1C[C@]2(O[Si](C)(C)CC=C)CCO[C@@]23CC[C@H](O[Si](C)(C)CC=C)C[C@@H]13 [Zyj07-48] |  |  | 19 | 0 | > 50 | 7 |  | 0 | 35 |  | 14 | > 50 | 13 |  | pest or weed control at 100 µg/mL [3]: 0%; pest or weed control at 100 µg/mL (Ostrinia furnacalis): 0%; pest or weed control at 100 µg/mL (Caenorhabditis elegans): 25%; pest or weed control at 100 µg/mL [2]: 0%; Death rate after 48 h (%) ([4]; dosage 9.89 μg a.i./bee): 5.0%; Death number after 24 h ([4]; dosage 9.89 μg a.i./bee): 0; Death number after 48 h ([4]; dosage 9.89 μg a.i./bee): 0 and 1; Death rate after 48 h (%) ([4]; dosage 19.8 μg a.i./bee): 0%; Death number after 24 h ([4]; dosage 19.8 μg a.i./bee): 0; Death number after 48 h ([4]; dosage 19.8 μg a.i./bee): 0
C=CC[Si](C)(C)O[C@@]12CCO[C@@]13CC[C@H]1C[C@H]3[C@H](CC=CC[Si](C)(C)O1)C2 [Zyj07-49] | 28 |  | 16 |  | 34 |  |  |  |  |  | 45 | > 50 |  |  | pest or weed control at 100 µg/mL [3]: 20%; pest or weed control at 100 µg/mL (Ostrinia furnacalis): 0%; pest or weed control at 100 µg/mL (Caenorhabditis elegans): 15%; pest or weed control at 100 µg/mL [2]: 0%; Death rate after 48 h (%) ([4]; dosage 6.06 μg a.i./bee): 0%; Death number after 24 h ([4]; dosage 6.06 μg a.i./bee): 0; Death number after 48 h ([4]; dosage 6.06 μg a.i./bee): 0; Death rate after 48 h (%) ([4]; dosage 19.8 μg a.i./bee): 0%; Death number after 24 h ([4]; dosage 19.8 μg a.i./bee): 0; Death number after 48 h ([4]; dosage 19.8 μg a.i./bee): 0
C=CC[C@@H]1C[C@@]2(OC(C)=O)C[C@@H](CC=C)[C@H]3C[C@H]4O[C@H]4C[C@@]32O1 [Zyj07-67-1] | 7 | 5 | 32 | 0 | > 50 | 23 |  | 0 | 14 | 10 | 18 |  | 31 | 20 | 
C=CC[C@@H]1C[C@@]2(O)C[C@@H](CC=C)[C@H]3C[C@@H](O)CC[C@@]32O1 [Zyj07-68] |  | 0 | 13 | 21 | 36 | 0 | 13 | 3 | 19 | 0 | 9 | > 50 | 2 | 0 | Death rate after 48 h (%) ([4]; dosage 9.97 μg a.i./bee): 10.0%; Death number after 24 h ([4]; dosage 9.97 μg a.i./bee): 0; Death number after 48 h ([4]; dosage 9.97 μg a.i./bee): 1; Death rate after 48 h (%) ([4]; dosage 16.1 μg a.i./bee): 0%; Death number after 24 h ([4]; dosage 16.1 μg a.i./bee): 0; Death number after 48 h ([4]; dosage 16.1 μg a.i./bee): 0
O=C1C[C@@]2(O)CC[C@H]3CC=CC[C@@]32O1 [Zyj07-96] | 23 | 10 | 24 |  | 25 | > 50 |  | > 60 |  | 15 | > 60 | > 50 |  | > 30 | Death rate after 48 h (%) ([4]; dosage 9.54 μg a.i./bee): 0%; Death number after 24 h ([4]; dosage 9.54 μg a.i./bee): 0; Death number after 48 h ([4]; dosage 9.54 μg a.i./bee): 0; Death rate after 48 h (%) ([4]; dosage 15.5 μg a.i./bee): 0%; Death number after 24 h ([4]; dosage 15.5 μg a.i./bee): 0; Death number after 48 h ([4]; dosage 15.5 μg a.i./bee): 0
